Measurements published in PubChem BioAssay (NCI).
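Briefly, cells in 96-well plates were exposed to five compound concentrations for 48 h, and endpoints were estimated by linear interpolation. GI50 = concentration required for 50% inhibition of growth. TGI denotes the concentration required for complete inhibition of growth.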

How the values were obtained:
Test in all cases: NCI-60 cell line screen, 48 h
786-0 renal = test system: 786-0 renal
A498 renal = test system: A498 renal
A549 NSCLC = test system: A549 NSCLC
ACHN renal = test system: ACHN renal
BT-549 breast = test system: BT-549 breast
CAKI-1 renal = test system: CAKI-1 renal
CCRF-CEM leukemia = test system: CCRF-CEM leukemia
COLO 205 colon = test system: COLO 205 colon
DU-145 prostate = test system: DU-145 prostate
EKVX NSCLC = test system: EKVX NSCLC
HCC-2998 colon = test system: HCC-2998 colon
HCT-116 colon = test system: HCT-116 colon
HCT-15 colon = test system: HCT-15 colon
HL-60(TB) leukemia = test system: HL-60(TB) leukemia
HOP-62 NSCLC = test system: HOP-62 NSCLC
HOP-92 NSCLC = test system: HOP-92 NSCLC
HS 578T breast = test system: HS 578T breast
HT29 colon = test system: HT29 colon
IGROV1 ovarian = test system: IGROV1 ovarian
K-562 leukemia = test system: K-562 leukemia
KM12 colon = test system: KM12 colon
LOX IMVI melanoma = test system: LOX IMVI melanoma
M14 melanoma = test system: M14 melanoma
MALME-3M melanoma = test system: MALME-3M melanoma
MCF7 breast = test system: MCF7 breast
MDA-MB-231 breast = test system: MDA-MB-231 breast
MDA-MB-435 = test system: MDA-MB-435
MOLT-4 leukemia = test system: MOLT-4 leukemia
NCI-H226 lung = test system: NCI-H226 lung
NCI-H23 lung = test system: NCI-H23 lung
NCI-H460 lung = test system: NCI-H460 lung
NCI-H522 lung = test system: NCI-H522 lung
NCI/ADR-RES ovarian = test system: NCI/ADR-RES ovarian
OVCAR-3 ovarian = test system: OVCAR-3 ovarian
OVCAR-4 ovarian = test system: OVCAR-4 ovarian
OVCAR-5 ovarian = test system: OVCAR-5 ovarian
OVCAR-8 ovarian = test system: OVCAR-8 ovarian
PC-3 prostate = test system: PC-3 prostate
RPMI-8226 leukemia = test system: RPMI-8226 leukemia
RXF 393 renal = test system: RXF 393 renal
SF-268 CNS = test system: SF-268 CNS
SF-295 CNS = test system: SF-295 CNS
SF-539 CNS = test system: SF-539 CNS
SK-MEL-2 melanoma = test system: SK-MEL-2 melanoma
SK-MEL-28 melanoma = test system: SK-MEL-28 melanoma
SK-MEL-5 melanoma = test system: SK-MEL-5 melanoma
SK-OV-3 ovarian = test system: SK-OV-3 ovarian
SN12C renal = test system: SN12C renal
SNB-19 CNS = test system: SNB-19 CNS
SNB-75 CNS = test system: SNB-75 CNS
SR leukemia = test system: SR leukemia
SW-620 colon = test system: SW-620 colon
T-47D breast = test system: T-47D breast
TK-10 renal = test system: TK-10 renal
U251 CNS = test system: U251 CNS
UACC-257 melanoma = test system: UACC-257 melanoma
UACC-62 melanoma = test system: UACC-62 melanoma
UO-31 renal = test system: UO-31 renal

COc1ccc2[nH]c(-c3ccccc3)c(C=C(C#N)C#N)c2c1
GI50 (786-0 renal): 6.63 µM
TGI (786-0 renal): > 100 µM
GI50 (A498 renal): 2.01 µM
TGI (A498 renal): 6.22 µM
GI50 (A549 NSCLC): 6.97 µM
TGI (A549 NSCLC): > 100 µM
GI50 (ACHN renal): 7.41 µM
TGI (ACHN renal): > 100 µM
GI50 (BT-549 breast): 2.17 µM
TGI (BT-549 breast): > 100 µM
GI50 (CAKI-1 renal): 4.13 µM
TGI (CAKI-1 renal): > 100 µM
GI50 (CCRF-CEM leukemia): 3.42 µM
TGI (CCRF-CEM leukemia): > 100 µM
GI50 (COLO 205 colon): 2.11 µM
TGI (COLO 205 colon): 6.83 µM
GI50 (DU-145 prostate): 6.52 µM
TGI (DU-145 prostate): > 100 µM
GI50 (EKVX NSCLC): 4.05 µM
TGI (EKVX NSCLC): > 100 µM
GI50 (HCC-2998 colon): 6.08 µM
TGI (HCC-2998 colon): > 100 µM
GI50 (HCT-116 colon): 4.37 µM
TGI (HCT-116 colon): > 100 µM
GI50 (HCT-15 colon): 3.23 µM
TGI (HCT-15 colon): > 100 µM
GI50 (HL-60(TB) leukemia): 2.5 µM
TGI (HL-60(TB) leukemia): 13.2 µM
GI50 (HOP-62 NSCLC): 5.31 µM
TGI (HOP-62 NSCLC): 36.1 µM
GI50 (HOP-92 NSCLC): 2.4 µM
TGI (HOP-92 NSCLC): 36.4 µM
GI50 (HS 578T breast): 2.35 µM
TGI (HS 578T breast): 25.4 µM
GI50 (HT29 colon): 3.13 µM
TGI (HT29 colon): > 100 µM
GI50 (IGROV1 ovarian): 8.35 µM
TGI (IGROV1 ovarian): > 100 µM
GI50 (K-562 leukemia): 2.07 µM
TGI (K-562 leukemia): > 100 µM
GI50 (KM12 colon): 3.45 µM
TGI (KM12 colon): > 100 µM
GI50 (LOX IMVI melanoma): 4.88 µM
TGI (LOX IMVI melanoma): > 100 µM
GI50 (M14 melanoma): 2.29 µM
TGI (M14 melanoma): 44.5 µM
GI50 (MALME-3M melanoma): 4.41 µM
TGI (MALME-3M melanoma): > 100 µM
GI50 (MCF7 breast): 2.16 µM
TGI (MCF7 breast): > 100 µM
GI50 (MDA-MB-231 breast): 3.8 µM
TGI (MDA-MB-231 breast): > 100 µM
GI50 (MDA-MB-435): 0.607 µM
TGI (MDA-MB-435): 4.68 µM
GI50 (MOLT-4 leukemia): 3.74 µM
TGI (MOLT-4 leukemia): > 100 µM
GI50 (NCI-H226 lung): 3.51 µM
TGI (NCI-H226 lung): 57.6 µM
GI50 (NCI-H23 lung): 4.08 µM
TGI (NCI-H23 lung): > 100 µM
GI50 (NCI-H460 lung): 3.56 µM
TGI (NCI-H460 lung): > 100 µM
GI50 (NCI-H522 lung): 4.57 µM
TGI (NCI-H522 lung): > 100 µM
GI50 (NCI/ADR-RES ovarian): 2.79 µM
TGI (NCI/ADR-RES ovarian): 14 µM
GI50 (OVCAR-3 ovarian): 3.08 µM
TGI (OVCAR-3 ovarian): 16 µM
GI50 (OVCAR-4 ovarian): 5.36 µM
TGI (OVCAR-4 ovarian): > 100 µM
GI50 (OVCAR-5 ovarian): 44.2 µM
TGI (OVCAR-5 ovarian): > 100 µM
GI50 (OVCAR-8 ovarian): 7.71 µM
TGI (OVCAR-8 ovarian): > 100 µM
GI50 (PC-3 prostate): 5.37 µM
TGI (PC-3 prostate): > 100 µM
GI50 (RPMI-8226 leukemia): 2.62 µM
TGI (RPMI-8226 leukemia): 20.3 µM
GI50 (RXF 393 renal): 9.82 µM
TGI (RXF 393 renal): > 100 µM
GI50 (SF-268 CNS): 8.27 µM
TGI (SF-268 CNS): > 100 µM
GI50 (SF-295 CNS): 4.15 µM
TGI (SF-295 CNS): > 100 µM
GI50 (SF-539 CNS): 2.94 µM
TGI (SF-539 CNS): 22 µM
GI50 (SK-MEL-2 melanoma): 5.87 µM
TGI (SK-MEL-2 melanoma): > 100 µM
GI50 (SK-MEL-28 melanoma): 4.44 µM
TGI (SK-MEL-28 melanoma): > 100 µM
GI50 (SK-MEL-5 melanoma): 2.87 µM
TGI (SK-MEL-5 melanoma): > 100 µM
GI50 (SK-OV-3 ovarian): 4.82 µM
TGI (SK-OV-3 ovarian): 35.8 µM
GI50 (SN12C renal): 4.67 µM
TGI (SN12C renal): > 100 µM
GI50 (SNB-19 CNS): 6.04 µM
TGI (SNB-19 CNS): > 100 µM
GI50 (SNB-75 CNS): 2.76 µM
TGI (SNB-75 CNS): 21.2 µM
GI50 (SR leukemia): 0.865 µM
TGI (SR leukemia): 3.29 µM
GI50 (SW-620 colon): 3.62 µM
TGI (SW-620 colon): > 100 µM
GI50 (T-47D breast): 2.29 µM
TGI (T-47D breast): 9.14 µM
GI50 (TK-10 renal): 5.07 µM
TGI (TK-10 renal): > 100 µM
GI50 (U251 CNS): 3.53 µM
TGI (U251 CNS): 25.5 µM
GI50 (UACC-257 melanoma): 30 µM
TGI (UACC-257 melanoma): > 100 µM
GI50 (UACC-62 melanoma): 2.53 µM
TGI (UACC-62 melanoma): 21.7 µM
GI50 (UO-31 renal): 6.43 µM
TGI (UO-31 renal): > 100 µM
